# Laboratory results from patent publication US20100267561A1, “HERBICIDAL PYRIDAZINONE DERIVATIVES” (priority 2007, published 2010).
# Legend:
# Assay type in all cases: in vivo
# [1] = tested on: common (oilseed) sunflower (Helianthus annuus); experiment: Test B pre-/postemergence plant response; details: Preemergence
# Description: (§1) Seeds of plant species selected from blackgrass (Alopecurus myosuroides), downy bromegrass (Bromus tectorum), green foxtail (Setaria viridis), Italian ryegrass (Lolium multiflorum), wheat (Triticum aestivum), wild oat (Avena fatua), catchweed bedstraw (Galium aparine), bermudagrass (Cynodon dactylon), surinam grass (Brachiaria decumbens), cocklebur (Xanthium strumarium), corn (Zea mays), large crabgrass (Digitaria sanguinalis), woolly cupgrass (Eriochloa villosa), giant foxtail (Setaria faberii), goosegrass (Eleusine indica), johnsongrass (Sorghum halepense), kochia (Kochia scoparia), lambsquarters (Chenopodium album), morningglory (Ipomoea coccinea), eastern black (E.B.) nightshade (Solanum ptycanthum), yellow nutsedge (Cyperus esculentus), pigweed (Amaranthus retroflexus), common ragweed (Ambrosia elation), Russian thistle (Salsola iberica), soybean (Glycine max), common (oilseed) sunflower (Helianthus annuus), and velvetleaf (Abutilon theophrasti) were planted and treated preemergence with test chemicals formulated in a non-phytotoxic solvent mixture which included a surfactant.
# (§2) At the same time, plants selected from these crop and weed species and also winter barley (Hordeum vulgare), canarygrass (Phalaris minor), chickweed (Stellaria media) and windgrass (Apera spica-venti) were treated with postemergence applications of some of the test chemicals formulated in the same manner. Plants ranged in height from 2 to 18 cm (1- to 4-leaf stage) for postemergence treatments.
# (§3) Plant species in the flooded paddy test consisted of rice (Oryza sativa), umbrella sedge (Cyperus difformis), ducksalad (Heteranthera limosa) and barnyardgrass (Echinochloa crus-galli) grown to the 2-leaf stage for testing. At time of treatment, test pots were flooded to 3 cm above the soil surface, treated by application of test compounds directly to the paddy water, and then maintained at that water depth for the duration of the test. Treated plants and controls were maintained in a greenhouse for 13 to 15 days, after which time all species were compared to controls and visually evaluated. Plant response ratings, summarized in Table B, are based on a scale of 0 to 100 where 0 is no effect and 100 is complete control. A dash (-) response means no test result.
# corn (Zea mays) = experiment: Test B pre-/postemergence plant response; details: for Corn plant response rating: 8 g ai/ha
# Description: as §1, §2, §3
# [2] = tested on: downy bromegrass (Bromus tectorum); experiment: Test B pre-/postemergence plant response; details: for Bromegrass, Downy plant response rating: 8 g ai/ha
# Description: as §1, §2, §3
# [3] = tested on: green foxtail (Setaria viridis); experiment: Test B pre-/postemergence plant response; details: for Foxtail, Green plant response rating: 8 g ai/ha
# Description: as §1, §2, §3
# [4] = tested on: large crabgrass (Digitaria sanguinalis); experiment: Test B pre-/postemergence plant response; details: for Crabgrass, Large plant response rating: 8 g ai/ha
# Description: as §1, §2, §3
# [5] = tested on: morningglory (Ipomoea coccinea); experiment: Test B pre-/postemergence plant response; details: for Morningglory plant response rating: 8 g ai/ha
# Description: as §1, §2, §3
# [6] = tested on: surinam grass (Brachiaria decumbens); experiment: Test B pre-/postemergence plant response; details: for Surinam Grass plant response rating: 8 g ai/ha
# Description: as §1, §2, §3
# [7] = tested on: velvetleaf (Abutilon theophrasti); experiment: Test B pre-/postemergence plant response; details: for Velvetleaf plant response rating: 8 g ai/ha
# Description: as §1, §2, §3
# [8] = tested on: wheat (Triticum aestivum); experiment: Test B pre-/postemergence plant response; details: for Wheat plant response rating: 8 g ai/ha
# Description: as §1, §2, §3
# wild oat (Avena fatua) = experiment: Test B pre-/postemergence plant response; details: for Oat, Wild plant response rating: 8 g ai/ha
# Description: as §1, §2, §3
# [9] = tested on: barnyardgrass (Echinochloa crus-galli); experiment: Test B flooded paddy test plant response
# Method in brief: (§4)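 Compounds were added directly to paddy water over 2-leaf-stage plants in pots flooded 3 cm above soil, water depth maintained. Visual injury scored against controls after 13 to 15 days in greenhouse, 0 (none) to 100 (complete control); dash indicates no result.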
# [10] = tested on: ducksalad (Heteranthera limosa); experiment: Test B flooded paddy test plant response
# Method in brief: as §4
# rice (Oryza sativa) = experiment: Test B flooded paddy test plant response
# Method in brief: as §4
# [11] = tested on: umbrella sedge (Cyperus difformis); experiment: Test B flooded paddy test plant response
# Method in brief: as §4
# [12] = Postemergence, 16 g ai/ha, scale 0 to 100
# [13] = Postemergence, 31 g ai/ha, scale 0 to 100, 0 no effect, 100 complete control
# [14] = Preemergence, 16 g ai/ha, scale 0 to 100 (0 no effect, 100 complete control)
# [15] = Preemergence, 31 g ai/ha, 0 to 100 scale, 0 no effect, 100 complete control
# [16] = Preemergence, 62 g ai/ha, scale 0 to 100
# [17] = Postemergence, 62 g ai/ha, scale 0 to 100
# [18] = Flood (flooded paddy test), 62 g ai/ha, scale 0 to 100, 0 no effect, 100 complete control
# [19] = Flood (flooded paddy test), 125 g ai/ha, scale 0 to 100, 0 no effect, 100 complete control
# [20] = Flood (flooded paddy test), 250 g ai/ha, scale 0 to 100, 0 no effect, 100 complete control
# [21] = Flood, 31 g ai/ha, scale 0 to 100
smiles,measurement,setting,value
CCc1cc(-c2ccc(Cl)c(Cl)c2)nn1-c1c(O)cnn(C)c1=O [Compound 20],"Plant response rating, Sunflower","[1]; 16 g ai/ha, scale 0 to 100 (0 no effect, 100 complete control)",0
same,"Plant response rating, Sunflower","[1]; 31 g ai/ha, 0 to 100 scale, 0 no effect, 100 complete control",30
same,"Plant response rating, Sunflower","[1]; 62 g ai/ha, scale 0 to 100",40
same,Sunflower plant response rating,"[1]; 8 g ai/ha, scale 0 to 100",0
same,Corn plant response rating,"corn (Zea mays); postemergence, 0-100 scale",0
same,"Plant response rating, Corn",corn (Zea mays); [12],90
same,"Plant response rating, Corn",corn (Zea mays); [13],95
same,"Plant response rating, Corn",corn (Zea mays); [14],5
same,"Plant response rating, Corn",corn (Zea mays); [15],80
same,"Plant response rating, Corn",corn (Zea mays); [16],95
same,Corn plant response rating,"corn (Zea mays); Preemergence, scale 0 to 100",0
same,"Bromegrass, Downy plant response rating","[2]; postemergence, 0-100 scale",0
same,"Plant response rating, Bromegrass, Downy",[2]; [12],0
same,"Plant response rating, Bromegrass, Downy",[2]; [13],40
same,"Plant response rating, Bromegrass, Downy",[2]; [17],50
same,"Plant response rating, Bromegrass, Downy",[2]; [14],0
same,"Plant response rating, Bromegrass, Downy",[2]; [15],0
same,"Plant response rating, Bromegrass, Downy",[2]; [16],0
same,"Bromegrass, Downy plant response rating","[2]; Preemergence, scale 0 to 100",0
same,"Foxtail, Green plant response rating","[3]; postemergence, 0-100 scale",20
same,"Plant response rating, Foxtail, Green",[3]; [12],60
same,"Plant response rating, Foxtail, Green",[3]; [13],85
same,"Plant response rating, Foxtail, Green",[3]; [17],95
same,"Plant response rating, Foxtail, Green",[3]; [14],95
same,"Plant response rating, Foxtail, Green",[3]; [15],100
same,"Plant response rating, Foxtail, Green",[3]; [16],100
same,"Foxtail, Green plant response rating","[3]; Preemergence, scale 0 to 100",20
same,"Crabgrass, Large plant response rating","[4]; postemergence, 0-100 scale",5
same,"Plant response rating, Crabgrass, Large",[4]; [12],70
same,"Plant response rating, Crabgrass, Large",[4]; [13],85
same,"Plant response rating, Crabgrass, Large",[4]; [17],90
same,"Plant response rating, Crabgrass, Large",[4]; [14],50
same,"Plant response rating, Crabgrass, Large",[4]; [15],50
same,"Plant response rating, Crabgrass, Large",[4]; [16],60
same,"Crabgrass, Large plant response rating","[4]; Preemergence, scale 0 to 100",0
same,Morningglory plant response rating,"[5]; postemergence, 0-100 scale",0
same,"Plant response rating, Morningglory",[5]; [12],0
same,"Plant response rating, Morningglory",[5]; [13],0
same,"Plant response rating, Morningglory",[5]; [17],0
same,"Plant response rating, Morningglory",[5]; [14],0
same,"Plant response rating, Morningglory",[5]; [15],0
same,"Plant response rating, Morningglory",[5]; [16],0
same,Morningglory plant response rating,"[5]; Preemergence, scale 0 to 100",0
same,Surinam Grass plant response rating,"[6]; postemergence, 0-100 scale",60
same,"Plant response rating, Surinam Grass",[6]; [12],90
same,"Plant response rating, Surinam Grass",[6]; [13],90
same,"Plant response rating, Surinam Grass",[6]; [17],100
same,"Plant response rating, Surinam Grass",[6]; [14],20
same,"Plant response rating, Surinam Grass",[6]; [15],50
same,"Plant response rating, Surinam Grass",[6]; [16],100
same,Surinam Grass plant response rating,"[6]; Preemergence, scale 0 to 100",0
same,Velvetleaf plant response rating,"[7]; postemergence, 0-100 scale",0
same,"Plant response rating, Velvetleaf",[7]; [12],0
same,"Plant response rating, Velvetleaf",[7]; [13],0
same,"Plant response rating, Velvetleaf",[7]; [17],0
same,"Plant response rating, Velvetleaf",[7]; [14],0
same,"Plant response rating, Velvetleaf",[7]; [15],0
same,"Plant response rating, Velvetleaf",[7]; [16],0
same,Velvetleaf plant response rating,"[7]; Preemergence, scale 0 to 100",0
same,Wheat plant response rating,"[8]; postemergence, 0-100 scale",0
same,"Plant response rating, Wheat",[8]; [12],20
same,"Plant response rating, Wheat",[8]; [13],20
same,"Plant response rating, Wheat",[8]; [17],60
same,"Plant response rating, Wheat",[8]; [14],0
same,"Plant response rating, Wheat",[8]; [15],0
same,"Plant response rating, Wheat",[8]; [16],0
same,Wheat plant response rating,"[8]; Preemergence, scale 0 to 100",0
same,"Oat, Wild plant response rating","wild oat (Avena fatua); postemergence, 0-100 scale",50
same,"Plant response rating, Oat, Wild",wild oat (Avena fatua); [12],90
same,"Plant response rating, Oat, Wild",wild oat (Avena fatua); [13],90
same,"Plant response rating, Oat, Wild",wild oat (Avena fatua); [17],90
same,"Plant response rating, Oat, Wild",wild oat (Avena fatua); [14],0
same,"Plant response rating, Oat, Wild",wild oat (Avena fatua); [15],50
same,"Plant response rating, Oat, Wild",wild oat (Avena fatua); [16],60
same,"Oat, Wild plant response rating","wild oat (Avena fatua); Preemergence, scale 0 to 100",0
same,"Plant response rating, Barnyardgrass",[9]; [18],0
same,"Plant response rating, Barnyardgrass",[9]; [19],0
same,"Plant response rating, Barnyardgrass",[9]; [20],0
same,"Plant response rating, Barnyardgrass",[9]; [21],0
same,"Plant response rating, Ducksalad",[10]; [18],0
same,"Plant response rating, Ducksalad",[10]; [19],0
same,"Plant response rating, Ducksalad",[10]; [20],0
same,"Plant response rating, Ducksalad",[10]; [21],0
same,"Plant response rating, Rice",rice (Oryza sativa); [18],0
same,"Plant response rating, Rice",rice (Oryza sativa); [19],0
same,"Plant response rating, Rice",rice (Oryza sativa); [20],0
same,"Plant response rating, Rice",rice (Oryza sativa); [21],0
same,"Plant response rating, Sedge, Umbrella",[11]; [18],0
same,"Plant response rating, Sedge, Umbrella",[11]; [19],0
same,"Plant response rating, Sedge, Umbrella",[11]; [20],0
same,"Plant response rating, Sedge, Umbrella",[11]; [21],0
